In patent US5763597A, “Orally active adenosine kinase inhibitors” (priority 1996, dated 1998):
Where two headings read alike, the source gives them in different places.

What was measured:
rat cardiomyocytes = settings: cited from earlier work
[1] = tested on: isolated guinea pig hearts; settings: without ADA inhibition; cited from earlier work
[2] = background; hence potentially short half life; cited from earlier work
rat brain slices = settings: cited from earlier work
guinea pig brain slices = settings: cited from earlier work
mice = settings: cited from earlier work; for general flaccidity and spontaneous locomotor activity: interpreted to be skeletal muscle relaxation
isolated rat hearts = settings: compound alone, cited from earlier work
dog hearts = settings: cited from earlier work
[3] = background; cited from earlier work
adenosine kinase = experiment: AK inhibition (adenosine kinase activity, [U-14C] adenosine); format: biochemical, partially purified pig heart or recombinant human; settings: 0.5 μM adenosine, 1 mM ATP, pH 7.0, 20 min; pig heart or recombinant human enzyme
Protocol: Adenosine kinase activity was measured essentially as described by Yamada et al. Biochim. Biophys. Acta 660, 3643 (1988) with a few minor modifications. Assay mixtures contained 50 mM TRIS-maleate buffer, pH 7.0, 0.1% BSA, 1 mM ATP 1 mM MgCl2, 0.5 μM [U-^14 C] adenosine (400-600 mCi/mmol) and varying duplicate concentrations of inhibitor. […] The amount of ^14 C-AMP was quantified by scintillation counting.

[4] = tested on: formalin-induced pain in rats; experiment: Analgesic activity, formalin paw model; format: in vivo; settings: rat, oral, 20 mg/kg; for % Inhibition Phase 1 Composite score: Phase 1 (1.7-5 min post-formalin); for % Inhibition Phase 2 Composite score: Phase 2 (10.3-30 min post-formalin); for % Inhibition Phase 2 Licking/biting: Phase 2, licking/biting incidences
From the text: Pharmacol. Exper. Ther., 250:3, 915-922 (1989). See also, Life Sciences 51:171-76 (1992). These models measure pain avoidance and tolerance in response to a regulated stimulus, and compare the response of animals before and after they are given test compound. Formalin Paw Assay In this assay, injection of formalin, an irritant, into the hindpaw of rats typically evokes a biphasic response of pain-related behaviors. […] Phase I behavior is thought to be a direct effect of the irritant on nociceptors at the injection site while phase 2 behavior is thought to include a hyperalgesic component mediated by sensitization of neuronal elements within the spinal cord. Studies from other laboratories have found the first portion of Phase 2 (sometimes referred to as Phase 2a) to be most responsive to pharmacological manipulation. Rats (male, Simonsen) weighing between 100-200 g, are used in the present experiments. For screening purposes drugs are administered orally 90 min prior to initiation of formalin test. […] The rat is then immediately placed in a separate plexiglass box and scoring (described below) of the animal's behavior is begun at 1.7 min after formalin injection. […] This sequence is repeated over a 30 min period. […] Scores are continuously recorded directly onto an Excel spreadsheet.

[5] = tested on: hot plate pain response in male SA rats; experiment: Analgesic activity, hot plate; format: in vivo; settings: rat, po
From the text: Ther., 250:3, 915-922 (1989). See also, Life Sciences 51:171-76 (1992). These models measure pain avoidance and tolerance in response to a regulated stimulus, and compare the response of animals before and after they are given test compound.

[6] = tested on: carrageenan paw swelling in rats; experiment: Anti-inflammatory activity, carrageenan paw swelling; format: in vivo; settings: rat, swelling after 3 hours; for Carrageenan Paw (% inh) ip: 10 mg/kg ip, 30 min before carrageenan; for Carrageenan Paw (% inh) po: 10 mg/kg po, 1 h before carrageenan
[7] = Oral bioavailability in dogs; format: in vivo, female beagle dogs; settings: dog, 10 mg/kg oral versus iv, dose-corrected AUC to infinity, PEG-400
Protocol: Oral bioavailability was determined by comparing the dose corrected areas under the plasma-concentration time curve (AUC) to infinity for the each tested compound, given orally and intravenously in dogs. […] One dog received this solution at an infusion rate of 0.1 mL/min for 20 minutes. The other dog received a 0.2 mL/in infusion for 10 minutes. […] The plasma was separated within 10 minutes of blood collection and was stored frozen. The plasma concentration of compound was then determined for these IV infusions. […] The plasma concentration of compound was determined for this oral administration. The samples were assayed for intact adenosine kinase inhibitor by high performance liquid chromatography (HPLC). An internal standard was added to each test sample and standard sample. Each was then extracted with 10 volumes of 1% v/v dimethylsulfoxide in acetonitrile. […] The dried residue was reconstituted in mobile phase and the contents were analyzed for the adenosine kinase inhibitor (AKI) on HPLC. […] Pharmacokinetic parameters were calculated from the plasma concentration vs. time data, using standard non-compartmental methods. […] (1983).

[8] = tested on: maximal electroshock seizures (hind limb tonic extension) in male SA rats; experiment: Anticonvulsant activity, maximal electroshock (MES) model; format: in vivo; settings: rat
[9] = po, fasted overnight, ">>" (written >) = no activity at stated dose, read-out: Anticonvulsant ED50 (MES) po
[10] = ip, ">5" = HTE inhibited in fewer than 50% of animals at 5 mg/kg screen, ">>" (written >) = no activity, "<" = maximal activity at stated dose, read-out: Anticonvulsant ED50 (MES) ip

In the case of `OC[C@H]1O[C@@H](n2cnc3c2N=CNC[C@H]3O)C[C@@H]1O` [2'-deoxycoformycin], the “effect on adenosine release from the cells” value (rat cardiomyocytes; adenosine deaminase inhibition) is given as “no effect on adenosine release from the cells”.

In the case of `NC[C@H]1O[C@@H](n2cnc3c(N)ncnc32)[C@H](O)[C@@H]1O` [5'-amino-5'-deoxyadenosine], the “increase in adenosine release” value (rat cardiomyocytes; together with ADA inhibition) is listed as 6 fold, the “adenosine release in the absence of ADA inhibition” value [1] is listed as “These effects were not apparent in the absence of ADA inhibition” and the susceptibility to deamination [2] is listed as “susceptibility of 5'-amino-5'-deoxyadenosine to deamination”.

In the case of `C[C@H]1O[C@@H](n2cc(I)c3c(N)ncnc32)[C@H](O)[C@@H]1O` [5'-deoxy-5-iodotubercidin], the “adenosine uptake, rat brain slices” value (rat brain slices) is listed as “adenosine uptake was reportedly inhibited”, the “adenosine uptake, guinea pig brain slices” value (guinea pig brain slices) is listed as “adenosine uptake was reportedly inhibited” and the “body temperature (hypothermia)” value (mice) is listed as “hypothermia”. The “general flaccidity and spontaneous locomotor activity” value (mice) was “pronounced general flaccidity and much-reduced spontaneous locomotor activity”.

In the case of `Nc1ncnc2c1c(I)cn2[C@@H]1O[C@H](CO)[C@@H](O)[C@H]1O` [5-iodotubercidin], the “perfusate adenosine concentration, hypoxic, anoxic or ischemic” value (isolated rat hearts; hypoxic, anoxic or ischemic conditions) is listed as “no increase in perfusate adenosine concentration”, the “perfusate adenosine concentration, normoxic” value (isolated rat hearts; normoxic conditions) is listed as “no increase in perfusate adenosine concentration” and the “adenosine uptake, rat brain slices” value (rat brain slices) is listed as “adenosine uptake was reportedly inhibited”. The “adenosine uptake, guinea pig brain slices” value (guinea pig brain slices) was “adenosine uptake was reportedly inhibited”, the “effects in dog heart ischemia and reperfusion” value (dog hearts) was “inconsistent effects” and the “body temperature (hypothermia)” value (mice) was “hypothermia”. The “general flaccidity and spontaneous locomotor activity” value (mice) was “pronounced general flaccidity and much-reduced spontaneous locomotor activity” and the cytotoxicity [3] was “cytotoxicity of 5-iodotubercidin”.

In the case of `C[C@H]1O[C@@H](n2cc(-c3ccccc3)c3c(Nc4ccc(F)cc4)ncnc32)[C@H](O)[C@@H]1O` [compound 1], the IC50 (adenosine kinase) is reported as 11 nM, the “% Inhibition Phase 1 Composite score” value [4] is reported as 7.4% and the “% Inhibition Phase 2 Composite score” value [4] is reported as 33.3%. The “% Inhibition Phase 2 Licking/biting” value [4] was 59%, the ED50 [5] was 16.6 mg/kg and the “Carrageenan Paw (% inh) ip” value [6] was 3.5 % inh. The “Carrageenan Paw (% inh) po” value [6] was 0.2 % inh.

With `C[C@H]1O[C@@H](n2cc(-c3ccc(F)cc3)c3c(Nc4ccc(F)cc4)ncnc32)[C@H](O)[C@@H]1O` [compound 2] the “% Oral Availability” value [7] was 47%.

With `COc1ccc(-c2cn([C@@H]3O[C@H](C)[C@@H](O)[C@H]3O)c3ncnc(Nc4ccc(F)cc4)c23)cc1` [compound 25] the IC50 (adenosine kinase) was 10 nM, the “% Inhibition Phase 1 Composite score” value [4] was 88.4% and the “% Inhibition Phase 2 Composite score” value [4] was 91.9%. For the same compound, the “% Inhibition Phase 2 Licking/biting” value [4] was 100%.

With `CCOc1ccc(Nc2ncnc3c2c(-c2ccccc2)cn3[C@@H]2O[C@H](C)[C@@H](O)[C@H]2O)cc1` [compound 28] the IC50 (adenosine kinase) was 4 nM, the “% Inhibition Phase 1 Composite score” value [4] was 22.5% and the “% Inhibition Phase 2 Composite score” value [4] was 46.8%. For the same compound, the “% Inhibition Phase 2 Licking/biting” value [4] was 83%, the “Carrageenan Paw (% inh) ip” value [6] was 22.2 % inh and the “Carrageenan Paw (% inh) po” value [6] was 31.0 % inh.

For `CC(=O)Nc1ccc(Nc2ncnc3c2c(-c2ccccc2)cn3[C@@H]2O[C@H](C)[C@@H](O)[C@H]2O)cc1` [compound 32], the IC50 (adenosine kinase) was 0.5 nM, the ED50 [8, 9] was greater than 10 mg/kg and the “% Inhibition Phase 1 Composite score” value [4] was 0%. For the same compound, the “% Inhibition Phase 2 Composite score” value [4] was 30.9% and the “% Inhibition Phase 2 Licking/biting” value [4] was 56%.

For `C[C@H]1O[C@@H](n2cc(-c3ccccc3)c3c(Nc4ccc(S(N)(=O)=O)cc4)ncnc32)[C@H](O)[C@@H]1O` [compound 34], the IC50 (adenosine kinase) was 5 nM, the ED50 [8, 9] was greater than 10 mg/kg and the “Carrageenan Paw (% inh) ip” value [6] was 1.7 % inh. The “Carrageenan Paw (% inh) po” value [6] was 0 % inh.

Work on `C[C@H]1O[C@@H](n2cc(-c3ccccc3)c3c(Nc4ccc(N)cc4)ncnc32)[C@H](O)[C@@H]1O` [compound 43] yielded an IC50 (adenosine kinase) of 3 nM and an ED50 [8, 10] of 5 mg/kg.

For `[N-]=[N+]=NC[C@H]1O[C@@H](n2nc(-c3cccs3)c3c(Nc4ccccc4)ncnc32)[C@H](O)[C@@H]1O` [compound 97], the IC50 (adenosine kinase) was 10 nM and the “Anticonvulsant ED50 (MES) ip” value ([8]; ip, ">5" = HTE inhibited in fewer than 50% of animals at 5 mg/kg screen, ">>" (written >) = no activity, "<" = maximal activity at stated dose) was greater than 5 mg/kg.

With `CCOC(=O)Cc1ccc(Nc2ncnc3c2c(-c2ccccc2)cn3[C@@H]2O[C@H](C)[C@@H](O)[C@H]2O)cc1` [compound 127] the IC50 (adenosine kinase) was 2 nM, the ED50 [8, 10] was 5 mg/kg and the “Carrageenan Paw (% inh) ip” value [6] was 5.4 % inh. The “Carrageenan Paw (% inh) po” value [6] was 2.9 % inh.

With `C[C@H]1O[C@@H](n2cc(-c3ccc(CO)cc3)c3c(Nc4ccccc4)ncnc32)[C@H](O)[C@@H]1O` [compound 130] the IC50 (adenosine kinase) was 6 nM, the ED50 [8, 10] was greater than 5 mg/kg and the “Carrageenan Paw (% inh) ip” value [6] was 0.0 % inh. The “Carrageenan Paw (% inh) po” value [6] was 3.9 % inh.
